In patent US20230122911A1, “FORMULATIONS OF ENZALUTAMIDE” (Astellas Pharma Inc., priority 2012, published 2023):

How the values were obtained:
[1] = Membrane-permeation (MP) dissolution test; assay type: in vitro ADME
Experimental: The membrane permeability test described in the Examples below is carried out as follows. A drug-permeable membrane is placed between feed and permeate reservoirs. A sufficient quantity of test composition is added to a feed test medium and placed in the feed reservoir, while a water immiscible organic solution, such as a 60/40 mixture of decanol/decane, is placed in the permeate reservoir. Samples are removed from the permeate reservoir and analyzed for the concentration of drug as a function of time. […] Further details of this membrane permeation test are disclosed in U.S. Pat. No 7,611,630 B2.
The MP-dissolution test, whose details are described above, measures a capability of low solubility drug formulations which is not measured in the microcentrifuge dissolution test utilized in Examples 4 and 7. This test mimics an aspect of the in vivo situation in the GI tract. In the in vivo situation, it is generally accepted that free drug in solution (i.e. individual drug molecules dissolved in the GI medium without association with formulation components) is the species which is absorbed across the gastrointestinal wall into the bloodstream. As free drug is absorbed, the formulation must be capable of supplying more free drug for absorption. The membrane permeation test measures the amount of drug which crosses a polymeric membrane (as a model of the GI wall) over time, and thus reflects the ability of the formulation to resupply free drug in solution to be further passively transported across the polymeric membrane. In Table 8.1 below, Maximum Flux is the maximum observed rate of permeation across the polymeric membrane, based on the slope of the absorption curve over any period within the 240 minute duration of the experiment, normalized for membrane area. Total drug recovery is the % of the initial drug dose which has crossed the membrane when the test ended at 240 minutes.

[2] = Relative bioavailability of amorphous drug and spray-dried dispersions in rats (Example 12); assay type: in vivo; details: oral gavage 20 mg/kg, mean ± standard deviation
Experimental: (§1) Five groups of jugular vein-cannulated CD® rats (n=6 per group) were dosed five enzalutamide formulations by oral gavage, at a dose of 20 mg/kg, in a volume of 2 ml/kg. Blood samples were obtained at 1, 3, 6, 12, 24, 36, 48, 60, and 72 hr post-dose.
(§2) The analytes, enzalutamide. MDPC0002, and MDPC0001 and internal standards (IS), N-^13CD3-enzalutamide, MDPC0002-^13CD3, and MDPC0001-^13CD3 were extracted from 0.050 µL, of rat plasma by a liquid-liquid extraction procedure. Internal standard working solution (25.0 µL) was added to all wells except the matrix blank. A 25.0 µL-volume of acetonitrile was added all matrix blank samples. After adding 200 µL of 5% sodium bicarbonate in water buffer solution, the plate was vortexed for approximately 10 seconds. A Tomtec Quadra 96-well pipettor was used to add 1,050 mL of methyl tert-butyl ether (MTBE) to all wells, mixed, and approximately 1.00 mL of the organic layer was transferred to a clean 96-well plate. The samples were evaporated under heated nitrogen and reconstituted with 250 µL of 0.1% formic acid in methanol/water (40:60. v/v). The plate was covered and gently vortexed for approximately 10 seconds. The extracts were chromatographed under reverse phase conditions on an ACE 5 C18 HPLC 5 µm, 2.1 x 30 mm column. The compounds were detected and quantified by tandem mass spectrometry in positive ion mode on an MDS Sciex API 3000 equipped with a Turbo IONSPRAY® probe. Calibration curves were obtained by performing a linear regression (weighted ⅟x^2) of the data from the calibration standards.
(§3) Plasma enzalutamide concentration vs. time curves were prepared, and values for the following parameters were determined. Cmax max is the highest enzalutamide concentration observed for each rat. Tmax is the time that Cmax is first achieved. AUC0-72 is the area under the plasma enzalutamide concentration vs. time plot out to 72 hr post-dosing.

[3] = Relative bioavailability of amorphous drug and HME dispersions in rats (Example 13); assay type: in vivo, rat; details: oral gavage 20 mg/kg; for Mean AUC0-inf: rat plasma; for Bioavailability (Mean AUC0-inf/IV Mean AUC0-inf): rat
Experimental: as §1, with “Six” for “Five”, “six” for “five”, “ml/kg. with the exception of one group which was dosed intravenously via tail vein.” for “ml/kg.”
as §2, with “enzalutamide,” for “enzalutamide.”, “MDPC0002-^13CD3.” for “MDPC0002-^13CD3,”, “[…]” for “µL,”, “1.050” for “1,050”, “(40:60,” for “(40:60.”
as §3, with “Cmax” for “Cmax max”

[4] = rat plasma, listed as Spray-dried amorphous drug
[5] = listed as Spray-dried amorphous drug

| SMILES | Maximum Flux ([1]; Table 8.1, within 240 minute duration, normalized for membrane area, listed as Amorphous (spray-dried) enzalutamide) | AUC 0-72 [2, 4] | Cmax [2, 4] | Tmax [2, 4] | Mean AUC0-inf [3, 5] | Bioavailability (Mean AUC0-inf/IV Mean AUC0-inf) [3, 5] | Maximum Flux ([1]; Table 8.1, within 240 minute duration, normalized for membrane area) | Maximum Flux ([1]; Table 9.3) | AUC(0-t) ([2]; CD, rat, plasma, po, 20 mg/kg, read-out: AUC 0-72) | Cmax ([2]; rat plasma) | Tmax ([2]; rat plasma) | Mean AUC0-inf [3] | Bioavailability (Mean AUC0-inf/IV Mean AUC0-inf) [3] |
| --- | --- | --- | --- | --- | --- | --- | --- | --- | --- | --- | --- | --- | --- |
| CNC(=O)c1ccc(N2C(=S)N(c3ccc(C#N)c(C(F)(F)F)c3)C(=O)C2(C)C)cc1F [Amorphous enzalutamide, 4-{3-[4-cyano-3-(trifluoromethyl)phenyl]-5,5-dimethyl-4-oxo-2-sulfanylideneimidazolidin-1-yl}-2-fluoro-N-methylbenzamide] | 1.3 µg/cm^2×min | 121000 ± 16400 ng·h/mL | 7140 ± 970 ng/mL | 2.55 ± 0.57 h | 132000 ng·h/mL | 57.1% |  |  |  |  |  |  |  |
| CNC(=O)c1ccc(N2C(=S)N(c3ccc(C#N)c(C(F)(F)F)c3)C(=O)C2(C)C)cc1F [Control 1, 4-{3-[4-cyano-3-(trifluoromethyl)phenyl]-5,5-dimethyl-4-oxo-2-sulfanylideneimidazolidin-1-yl}-2-fluoro-N-methylbenzamide] |  |  |  |  |  |  | 0.4 µg/cm^2×min | 0.4 µg/cm^2-min | 72700 ± 18400 ng·h/mL | 3530 ± 660 ng/mL | 6.05 ± 0.92 h | 62600 ng·h/mL | 27.1% |
